Measurements from paper PMC8049054, “Systematic Assessment of Fragment Identification for Multitarget Drug Design” (Chemmedchem, 2021).
Values belong to the compound of their own block, whether it stands above or below them.

What was measured:
[1] = test system: T1, soluble epoxide hydrolase (sEH); test: Differential scanning fluorimetry (DSF) screen on sEH; type: binding; details: 50 µM reference compound, triplicates repeated 3 times
T1 construct: For the expression of sEH-H and sEH-Fl transformed E.coli BL21 (DE3) cells were grown in 5052; made in house; host or cells: E. coli BL21 (DE3)

[2] = target: T2, soluble epoxide hydrolase (sEH) (Homo sapiens, UniProt P34913); test: sEH-H activity assay (fluorogenic substrate PHOME); type: biochemical; details: approved drug, 1-1000 µM
T2 construct: made in house; host or cells: E. coli BL21 (DE3)
T2 sequence (P34913 1-555): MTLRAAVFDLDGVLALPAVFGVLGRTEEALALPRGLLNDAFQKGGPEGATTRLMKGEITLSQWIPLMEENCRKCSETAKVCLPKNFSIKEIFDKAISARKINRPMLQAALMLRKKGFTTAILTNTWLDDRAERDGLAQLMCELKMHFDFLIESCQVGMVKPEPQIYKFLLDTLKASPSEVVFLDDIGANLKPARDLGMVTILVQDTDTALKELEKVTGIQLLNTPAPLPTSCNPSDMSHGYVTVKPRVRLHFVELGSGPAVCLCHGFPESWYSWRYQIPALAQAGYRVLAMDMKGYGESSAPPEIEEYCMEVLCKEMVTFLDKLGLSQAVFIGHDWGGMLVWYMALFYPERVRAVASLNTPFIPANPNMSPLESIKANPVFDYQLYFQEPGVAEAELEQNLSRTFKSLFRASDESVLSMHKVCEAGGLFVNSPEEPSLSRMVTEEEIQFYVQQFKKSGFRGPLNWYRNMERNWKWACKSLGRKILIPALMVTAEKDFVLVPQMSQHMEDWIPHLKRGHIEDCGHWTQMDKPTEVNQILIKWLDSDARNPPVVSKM
Description: (§1) For hit validation, we employed secondary assays with orthogonal readouts to confirm fragment activities. Biochemical activity assays were chosen for the enzymes sEH, LTA4H, and 5‐LOX. […] RXRα and FXR modulation was assessed in cell‐based hybrid reporter gene assays. All ten compounds were tested at a single concentration of 500 μM in the sEH and LTA4H activity assays and with a concentration of 100 μM on 5‐LOX, RXRα, and FXR. Fragments showing an inhibition greater than 50 % (sEH‐H and LTA4H) or greater than 70 % (5‐LOX) as well as the hits determined in the DSF experiments were further characterized in full concentration‐response curves between 0.1 and 1000 μM. […] As alternative cell‐free assay we employed isothermal titration calorimetry (ITC) to determine binding affinity of the fragments towards the LBDs of both nuclear receptors. ITC was performed with a protein concentration of 50 μM and compound concentrations of 250 μM.
(§2) The 10 fragments showing dual activity in the DSF experiments were validated by functional assay screening with a fixed concentration of 500 µM in case of sEH-H and LTA4H, 100 µM in case of 5-LOX and 30 µM, 10 µM and 5 µM in case of FXR and […]
(§3) % (5-LOX) as well as the hits determined in the DSF experiments were further measured with concentrations between 1000 µM and 0.1 µM (sEH-H and LTA4H) and between 300 µM and 1 µM (5-LOX). The sEH and LTA4H activity assays were performed as triplicate and repeated 3 times. The 5-LOX activity assay was performed with one point per concentration and repeated 3 times Raw data was first analyzed in Microsoft Office Excel (2013), before IC50 curves were plotted and further analyzed using GraphPad Prism 7 and GraphPad Prism 8 for the shown graphs .
The eight approved drugs were measured in the orthogonal assay systems analogous to the fragments. The approved drugs were […]
For the sEH-H and LTA4H, they were measured as triplicate in concentrations between 1000 µM and 1 µM and each measurement was repeated three times. For the 5-LOX they were measured as single point measurement in three different experiments with concentrations between 300 µM and 1 µM. For […]
Raw data was processed according to the fragments.
The sEH-H activity assay was performed adapted from Hahn et al.5 and Lukin et al.6. In short 1 µl of compound dilution in DMSO or pure DMSO (for the positive and negative control) was placed in a black 96-well plate (Thermo Scientific™ Nunc™ F96 MicroWell™ Black Polystyrene Plate) and then 89 µl of protein-mix or buffer mix (without protein as negative control) were added and the mixture was incubated for 30 min at room temperature. 10 µl of 0.6 mM 3-phenyl-cyano(6-methoxy-2-naphthalenyl)methylester-2-oxiraneacetic acid (PHOME) were added to every well. The Plate was measured every minute for 45 min. Final concentration per well was 3 nM sEH-Fl, 0.001 % Triton X-100, 25 mM Bis-tris, 0.1 mg/ml BSA, pH = 7.0, 1.6% DMSO […]

[3] = target: T3, 5‐lipoxygenase (5‐LOX) (Homo sapiens, UniProt P09917); test: 5-LOX activity assay (HPLC detection of product formation); type: biochemical; details: mean±standard deviation of three independent experiments
T3 construct: made in house; host or cells: E. coli BL21 (DE3)
T3 sequence (P09917 1-674): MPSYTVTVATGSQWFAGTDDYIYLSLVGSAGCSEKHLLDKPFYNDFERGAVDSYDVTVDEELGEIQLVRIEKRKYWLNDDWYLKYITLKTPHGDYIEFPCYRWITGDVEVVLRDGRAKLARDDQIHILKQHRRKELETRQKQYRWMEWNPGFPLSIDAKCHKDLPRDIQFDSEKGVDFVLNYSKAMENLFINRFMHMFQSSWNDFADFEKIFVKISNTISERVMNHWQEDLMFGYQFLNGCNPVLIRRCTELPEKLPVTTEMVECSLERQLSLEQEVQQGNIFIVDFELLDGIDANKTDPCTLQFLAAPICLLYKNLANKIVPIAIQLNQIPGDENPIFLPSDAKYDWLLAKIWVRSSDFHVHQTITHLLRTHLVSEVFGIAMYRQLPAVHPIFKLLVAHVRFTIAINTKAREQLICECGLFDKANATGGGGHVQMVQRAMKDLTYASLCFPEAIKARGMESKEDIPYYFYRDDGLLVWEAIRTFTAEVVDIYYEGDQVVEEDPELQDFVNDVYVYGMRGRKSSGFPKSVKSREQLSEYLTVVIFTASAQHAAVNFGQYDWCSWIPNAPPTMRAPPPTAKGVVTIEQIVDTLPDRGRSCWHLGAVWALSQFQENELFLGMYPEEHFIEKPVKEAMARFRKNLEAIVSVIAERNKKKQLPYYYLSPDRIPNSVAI
Description: as §1, §2, §3
The eight approved drugs were measured in the orthogonal assay systems analogous to the fragments. […]
For the 5-LOX they […]
were measured as single point measurement in three different experiments with concentrations between 300 µM and 1 µM. For […]
Raw data was processed according to the fragments. […]

[4] = test system: sEH, LTA4H, 5‐LOX, RXRα, FXR; test: DSF primary screen, statement over all five proteins; type: binding; details: 500 μM
From the text: For the primary screen of this fragment library, we employed differential scanning fluorimetry (DSF, also known as thermal shift). DSF is generally applicable to a large panel of protein targets and provides a robust, low‐cost screening technology for fragment‐based approaches. ^[20] All five proteins of our interest are soluble and were recombinantly expressed in Escherichia coli. We performed an initial fragment screen on all five targets by DSF. The use of a uniform screening method for all targets ensured consistent data and provided the opportunity to identify false positive hits which interfered with the screening technology. The conditions of the DSF assay were optimized for the desired screening and validated with reference compounds (Table S1 in the Supporting Information). Compounds causing a positive thermal shift ΔT m≥1.0 °C were considered as active. […]
The measurements were performed using a iCycler iQ™ Single -Color Real Time PCR device with a heat rate of 1 °C per min, an excitation wavelength of 490 nm and an emission wavelength of 570 nm. The first derivation calculated by MyiQ Op tical Software 1.0 was analyzed using Microsoft Office Excel 2013 by comparing the maxima. […]

[5] = test system: T4, RXRα; test: Differential scanning fluorimetry (DSF) screen on RXRα; type: binding; details: 50 µM reference compound; measured once as triplicate; no melting curve with DMSO
T4 construct: MBP (N, cleaved yes); poly-N-tag, His8-tag, TEV site (N, cleaved yes); made in house; host or cells: E. coli T7-express with pGro7 (GroEL/ES)

[6] = target: T3, 5‐lipoxygenase (5‐LOX); test: Differential scanning fluorimetry (DSF) screen on 5-LOX; type: binding; details: 100 µM reference compound; measured once as triplicate
[7] = target: T5, leukotriene A4 hydrolase (LTA4H) (Homo sapiens, UniProt P09960); test: Differential scanning fluorimetry (DSF) screen on LTA4H; type: binding; details: 50 µM reference compound, triplicates repeated 3 times
T5 construct: made in house; host or cells: E. coli BL21 (DE3)
T5 sequence (P09960 1-611): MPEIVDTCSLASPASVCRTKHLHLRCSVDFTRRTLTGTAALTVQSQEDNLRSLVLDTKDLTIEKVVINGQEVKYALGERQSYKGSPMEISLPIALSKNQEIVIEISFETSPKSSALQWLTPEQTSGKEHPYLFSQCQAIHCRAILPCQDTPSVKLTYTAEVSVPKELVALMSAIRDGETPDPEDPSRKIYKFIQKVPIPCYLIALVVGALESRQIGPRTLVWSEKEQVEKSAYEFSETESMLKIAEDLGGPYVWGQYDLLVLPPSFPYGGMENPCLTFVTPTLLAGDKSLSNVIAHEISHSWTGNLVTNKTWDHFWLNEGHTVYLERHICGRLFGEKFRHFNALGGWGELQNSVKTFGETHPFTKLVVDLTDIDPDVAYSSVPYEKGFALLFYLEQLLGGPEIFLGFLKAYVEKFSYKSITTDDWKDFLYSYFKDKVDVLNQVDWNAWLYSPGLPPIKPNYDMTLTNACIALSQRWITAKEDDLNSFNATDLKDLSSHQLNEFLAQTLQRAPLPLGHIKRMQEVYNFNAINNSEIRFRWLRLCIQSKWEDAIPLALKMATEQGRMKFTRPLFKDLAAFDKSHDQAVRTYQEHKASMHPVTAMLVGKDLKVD

SMILES: O=C(Nc1ccc(I)cc1)NC1CCCCC1 [CIU]
TM(ref) sEH-H [1]: 62.2 ± 0.4 °C
ΔTM sEH-H ([1]; in °C): 5.6 ± 0.5

SMILES: O=C(NCc1cccnc1)c1ccc(O)cc1 [Compound 22]
activity in the DSF screen [4]: no activity

SMILES: Cc1nc2ccccc2[nH]1 [Compound 24]
activity in the DSF screen [4]: no activity

SMILES: CC1(C)CCC(C)(C)c2cc(C3(c4ccc(C(=O)O)cc4)OCCO3)ccc21 [SR11237]
TM(ref) RXRα [5]: 59.0 ± 0.0 °C

Now from value to compound:

activity towards sEH [2]: completely loosing activity
IC50 [3]: 3.2 µM
SMILES: CC(C)COCC(CN(Cc1ccccc1)c1ccccc1)N1CCCC1 (stereo not shown) [Compound 15, bepridil, reference compound]

TM(ref) 5-LOX [6]: 63.7 ± 0.6 °C
SMILES: C[C@H](C#Cc1ccc(Cc2ccc(F)cc2)s1)N(O)C(N)=O [atreleuton]

TM(ref) LTA4H [7]: 60.7 ± 0.9 °C
ΔTM LTA4H ([7]; in °C): 5.9 ± 0.7
SMILES: CC(C)C[C@H](NC(=O)[C@@H](O)[C@H](N)Cc1ccccc1)C(=O)O [bestatin]
